The source of these data is ChEMBL document CHEMBL5260858, “Targeting mycobacterial membranes and membrane proteins: Progress and limitations” (Bioorg Med Chem, 2023).

Experiment [1] deals with Mycobacterium tuberculosis. Kind of experiment: In vivo antimycobacterial activity against Mycobacterium tuberculosis H37Rv infected in BALB/c mouse assessed as reduction in bacterial load at 200 mg/kg, po for 2 weeks. It counts as functional.
In experiment [2] the test system is Mycobacterium tuberculosis. Kind of experiment: In vivo antimycobacterial activity against Mycobacterium tuberculosis H37Rv infected in BALB/c mouse assessed as reduction in bacterial load at 300 mg/kg, po for 5 days. The class given is functional. The note with it: time 5 day.
Experiment [3] concerns Mycobacterium tuberculosis. Kind of experiment: Antitubercular activity against Mycobacterium tuberculosis H37Rv expressing the luxABCDE operon infected in human THP-1 cells assessed as reduction in intracellular bacterial load incubated for 72 hrs by luminescence analysis. It counts as functional, organism-based. The following applies: THP-1, 72 h.
For experiment [4], the system named is Mycobacterium tuberculosis. Kind of experiment: Antitubercular activity against Mycobacterium tuberculosis H37Rv assessed as bacterial growth inhibition incubated for 6 days by MABA analysis. The class given is functional. The following applies: 144 h, time 6 day. On the technique in general: Resazurin is reduced to fluorescent resorufin, in cell work by metabolically active cells.

The subject of experiment [5] is Mycobacterium tuberculosis. Briefly: Antitubercular activity against Mycobacterium tuberculosis H37Rv expressing the luxABCDE operon assessed as bacterial growth inhibition incubated for 5 days in low oxygen condition by LORA Assay. The note with it: 120 h, time 5 day. The class given is functional.
Experiment [6] deals with Mycobacterium tuberculosis. Briefly: Antitubercular activity against Mycobacterium tuberculosis H37Rv expressing the luxABCDE operon assessed as bacterial growth inhibition incubated for 28 hrs in aerobic condition by luminescence analysis. It counts as functional.

Converted amounts (≈) assume the structure as drawn.

On to `CNC(=O)c1c(-c2ccc(O)cc2)oc2ccc(O)c(CN3CCCCC3)c12`, for which the values for the Activity in experiment [1] and in experiment [2] were 6.8 log10CFU and 7 log10CFU, respectively.
One may read the IC50 as the concentration needed to halve the response being measured. As usually defined, the MIC is the lowest concentration found to suppress growth. As to `CCOC(=O)c1c(NC(=O)c2c(F)c(F)c(F)c(F)c2F)sc2c1CCN(CC)C2`, the IC50 in experiment [3] is 5.6 µM. Further, the MIC in experiment [4] is 0.69 µM (≈ 0.309 µg/mL); in experiment [5] it was greater than 200 µM; in experiment [6] it was 0.23 µM (≈ 0.103 µg/mL).
